Experimental data from PubChem BioAssay AID2060513 (Molecular Pharmacology Branch, DTP, NCI, 2025).

Tested on: 299254-011-R-J1-PDC complex spheroids viability
Assay: Anticancer human tumor 299254-011-R-J1-PDC patient-derived melanoma cell line growth inhibition [GQUAD]
Conditions: for IC50: curve of first compound; for viability, T/C: stronger effect = lower value
How it was run: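 Viability of tumor cells grown as complex spheroids with endothelial and stromal cells, exposed to drug combinations. Top concentration at or near clinical Cmax (else 10 microM), diluted in half-log increments.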

[1] = second compound 0.0316 µM, first compound 0.0316 µM
[2] = second compound 0.0316 µM, first compound 0.1 µM
[3] = second compound 0.0316 µM, first compound 0.316 µM
[4] = second compound 0.0316 µM, first compound 1 µM
[5] = second compound 0.0316 µM, first compound 3.16 µM
[6] = second compound 0.0316 µM, first compound 10 µM
[7] = second compound 0.1 µM, first compound 0.0316 µM
[8] = second compound 0.1 µM, first compound 0.1 µM
[9] = second compound 0.1 µM, first compound 0.316 µM
[10] = second compound 0.1 µM, first compound 1 µM
[11] = second compound 0.1 µM, first compound 3.16 µM
[12] = second compound 0.1 µM, first compound 10 µM
[13] = second compound 0.316 µM, first compound 0.0316 µM
[14] = second compound 0.316 µM, first compound 0.1 µM
[15] = second compound 0.316 µM, first compound 0.316 µM
[16] = second compound 0.316 µM, first compound 1 µM
[17] = second compound 0.316 µM, first compound 3.16 µM
[18] = second compound 0.316 µM, first compound 10 µM
[19] = second compound 1 µM, first compound 0.0316 µM
[20] = second compound 1 µM, first compound 0.1 µM
[21] = second compound 1 µM, first compound 0.316 µM
[22] = second compound 1 µM, first compound 1 µM
[23] = second compound 1 µM, first compound 3.16 µM
[24] = second compound 1 µM, first compound 10 µM
[25] = second compound 3.16 µM, first compound 0.0316 µM
[26] = second compound 3.16 µM, first compound 0.1 µM
[27] = second compound 3.16 µM, first compound 0.316 µM
[28] = second compound 3.16 µM, first compound 1 µM
[29] = second compound 3.16 µM, first compound 3.16 µM
[30] = second compound 3.16 µM, first compound 10 µM
[31] = second compound 10 µM, first compound 0.0316 µM
[32] = second compound 10 µM, first compound 0.1 µM
[33] = second compound 10 µM, first compound 0.316 µM
[34] = second compound 10 µM, first compound 1 µM
[35] = second compound 10 µM, first compound 3.16 µM
[36] = second compound 10 µM, first compound 10 µM
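Note: spheroids exposed to the agents for seven days before readout.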
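Throughout, for viability, T/C: percent viability relative to DMSO vehicle control wells = 100%.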

For `COc1cc(C2c3cc4c(cc3C(OC3OC5COC(C)OC5C(O)C3O)C3COC(=O)C23)OCO4)cc(OC)c1O` (centres undefined) + CN(C)c1ccc(Nc2c3ccc(NC(=O)CCN4CCCC4)cc3nc3cc(NC(=O)CCN4CCCC4)ccc23)cc1, the IC50 (second compound 0.0316 µM) was > 10 µM, the IC50 (second compound 0.1 µM) was > 10 µM and the IC50 (second compound 0.316 µM) was > 10 µM. The IC50 (second compound 1 µM) was > 10 µM, the IC50 (second compound 3.16 µM) was > 10 µM and the IC50 (second compound 10 µM) was > 10 µM. It also gave a viability, T/C [1] of 117%, a viability, T/C [2] of 102% and a viability, T/C [3] of 115%. It also gave a viability, T/C [4] of 88.3%, a viability, T/C [5] of 79.4% and a viability, T/C [6] of 88.7%. The viability, T/C [7] was 116%, the viability, T/C [8] was 105% and the viability, T/C [9] was 92.1%. The viability, T/C [10] was 92.6%, the viability, T/C [11] was 101% and the viability, T/C [12] was 87.1%. For the same compound, the viability, T/C [13] was 104%, the viability, T/C [14] was 107% and the viability, T/C [15] was 93.6%. For the same compound, the viability, T/C [16] was 88.2%, the viability, T/C [17] was 87.2% and the viability, T/C [18] was 76.8%. It also gave a viability, T/C [19] of 105%, a viability, T/C [20] of 107% and a viability, T/C [21] of 123%. The viability, T/C [22] was 93.5%, the viability, T/C [23] was 87.2% and the viability, T/C [24] was 95.2%. For the same compound, the viability, T/C [25] was 102%, the viability, T/C [26] was 108% and the viability, T/C [27] was 118%. The viability, T/C [28] was 81.2%, the viability, T/C [29] was 81.3% and the viability, T/C [30] was 81.3%. The viability, T/C [31] was 89.2%, the viability, T/C [32] was 105% and the viability, T/C [33] was 101%. The viability, T/C [34] was 107%, the viability, T/C [35] was 98% and the viability, T/C [36] was 81.8%.
With `O=C(c1cc(Cc2n[nH]c(=O)c3ccccc23)ccc1F)N1CCN(C(=O)C2CC2)CC1` + CN(C)c1ccc(Nc2c3ccc(NC(=O)CCN4CCCC4)cc3nc3cc(NC(=O)CCN4CCCC4)ccc23)cc1 the IC50 (second compound 0.0316 µM) was > 10 µM, the IC50 (second compound 0.1 µM) was > 10 µM and the IC50 (second compound 0.316 µM) was > 10 µM. For the same compound, the IC50 (second compound 1 µM) was > 10 µM, the IC50 (second compound 3.16 µM) was > 10 µM and the IC50 (second compound 10 µM) was > 10 µM. It also gave a viability, T/C [1] of 81.9%, a viability, T/C [2] of 88.2% and a viability, T/C [3] of 94%. The viability, T/C [4] was 92.7%, the viability, T/C [5] was 89.4% and the viability, T/C [6] was 78.1%. It also gave a viability, T/C [7] of 78.9%, a viability, T/C [8] of 78.1% and a viability, T/C [9] of 85.4%. For the same compound, the viability, T/C [10] was 96.8%, the viability, T/C [11] was 90.7% and the viability, T/C [12] was 80.9%. It also gave a viability, T/C [13] of 95.6%, a viability, T/C [14] of 89.1% and a viability, T/C [15] of 87.5%. For the same compound, the viability, T/C [16] was 82.8%, the viability, T/C [17] was 96.1% and the viability, T/C [18] was 85.5%. The viability, T/C [19] was 87.9%, the viability, T/C [20] was 95.2% and the viability, T/C [21] was 96%. It also gave a viability, T/C [22] of 101%, a viability, T/C [23] of 106% and a viability, T/C [24] of 80.2%. It also gave a viability, T/C [25] of 79.7%, a viability, T/C [26] of 86.9% and a viability, T/C [27] of 99.9%. The viability, T/C [28] was 91.1%, the viability, T/C [29] was 95.8% and the viability, T/C [30] was 68.1%. It also gave a viability, T/C [31] of 96.2%, a viability, T/C [32] of 92.3% and a viability, T/C [33] of 82.8%. The viability, T/C [34] was 89.2%, the viability, T/C [35] was 87.6% and the viability, T/C [36] was 95%.
